Experiments:
[1] = target: T1, Solute carrier organic anion transporter family member 1B1 (Homo sapiens, UniProt Q9Y6L6); conditions: chinese hamster, cho, 10 µM
T1 sequence (Q9Y6L6 whole entry): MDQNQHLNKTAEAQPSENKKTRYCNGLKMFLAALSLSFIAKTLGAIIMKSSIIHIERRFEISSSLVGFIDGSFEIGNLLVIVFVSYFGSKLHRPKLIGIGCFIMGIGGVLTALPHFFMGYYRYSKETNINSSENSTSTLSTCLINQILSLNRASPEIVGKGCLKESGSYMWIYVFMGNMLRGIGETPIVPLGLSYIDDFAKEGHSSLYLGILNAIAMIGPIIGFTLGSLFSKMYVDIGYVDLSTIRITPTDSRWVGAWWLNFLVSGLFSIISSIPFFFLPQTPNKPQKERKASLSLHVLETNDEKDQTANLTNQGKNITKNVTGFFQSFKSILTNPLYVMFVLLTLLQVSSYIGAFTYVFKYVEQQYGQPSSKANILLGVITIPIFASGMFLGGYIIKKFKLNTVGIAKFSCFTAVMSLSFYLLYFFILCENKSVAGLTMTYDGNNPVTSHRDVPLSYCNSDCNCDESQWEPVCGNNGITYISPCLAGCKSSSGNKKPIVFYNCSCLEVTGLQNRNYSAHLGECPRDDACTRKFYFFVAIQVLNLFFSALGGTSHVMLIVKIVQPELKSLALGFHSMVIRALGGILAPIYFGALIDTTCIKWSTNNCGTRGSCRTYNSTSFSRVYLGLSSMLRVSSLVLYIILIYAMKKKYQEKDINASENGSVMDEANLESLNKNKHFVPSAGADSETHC

[2] = target: T2, Solute carrier organic anion transporter family member 1B3 (Homo sapiens, UniProt Q9NPD5); conditions: chinese hamster, cho, 10 µM
T2 sequence (Q9NPD5 whole entry): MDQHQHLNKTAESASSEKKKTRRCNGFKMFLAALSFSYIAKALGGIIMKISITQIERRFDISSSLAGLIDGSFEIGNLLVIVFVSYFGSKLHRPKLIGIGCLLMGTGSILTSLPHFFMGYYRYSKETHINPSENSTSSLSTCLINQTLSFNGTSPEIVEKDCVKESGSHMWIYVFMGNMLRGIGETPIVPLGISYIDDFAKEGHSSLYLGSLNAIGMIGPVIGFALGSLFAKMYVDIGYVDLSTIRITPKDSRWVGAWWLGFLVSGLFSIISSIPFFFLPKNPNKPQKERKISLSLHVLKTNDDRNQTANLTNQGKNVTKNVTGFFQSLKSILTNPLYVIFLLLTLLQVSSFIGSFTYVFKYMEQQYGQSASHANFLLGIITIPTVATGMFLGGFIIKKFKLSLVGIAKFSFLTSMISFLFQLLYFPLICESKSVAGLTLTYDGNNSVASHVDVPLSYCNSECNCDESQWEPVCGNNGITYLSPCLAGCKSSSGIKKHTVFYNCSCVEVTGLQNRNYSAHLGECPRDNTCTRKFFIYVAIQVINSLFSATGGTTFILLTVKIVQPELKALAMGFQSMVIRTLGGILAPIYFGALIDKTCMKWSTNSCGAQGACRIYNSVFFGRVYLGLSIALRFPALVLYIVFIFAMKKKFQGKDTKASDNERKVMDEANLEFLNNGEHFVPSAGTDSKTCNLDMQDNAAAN

`OC[C@H]1O[C@@](CO)(O[C@H]2O[C@H](CO)[C@@H](O)[C@H](O)[C@H]2O)[C@@H](O[C@H]2O[C@H](CO)[C@@H](O)[C@H](O)[C@H]2O)[C@@H]1O` [MELEZITOSE] showed a residual activity [1] of 99.1% and a residual activity [2] of 96.54%.
In the case of `C[C@]12CC[C@@H]3c4ccc(O)cc4CC[C@H]3[C@@H]1C[C@@H](O)[C@@H]2O` [ESTRIOL], the residual activity [1] is reported as 110.2% and the residual activity [2] is reported as 102.7%.
Compound `COc1c(N2C[C@@H]3CCCN[C@@H]3C2)c(F)cc2c(=O)c(C(=O)O)cn(C3CC3)c12.Cl` [MOXIFLOXACIN HYDROCHLORIDE] has a residual activity [1] of 106% and a residual activity [2] of 94.01%.
`COc1ccc(-c2c(O)c3c(OC)c4c(cc3oc2=O)OC(C)(C)C=C4)cc1` [ROBUSTIC ACID] was tested, and the residual activity [1] was 96.44% and the residual activity [2] was 74.37%.
Work on `CC1(C)CC[C@]2(C(=O)O)[C@H](O)C[C@]3(C)C(=CC[C@@H]4[C@@]5(C)CC[C@H](O)C(C)(C)[C@@H]5CC[C@]43C)[C@@H]2C1` [ECHINOCYSTIC ACID] yielded a residual activity [1] of 69.3% and a residual activity [2] of 30.48%.
`COc1ccc2c(c1)OC/C(=C/c1ccc(OC)c(OC)c1)C2=O` [SAPPANONE A TRIMETHYL ETHER] was tested, and the residual activity [1] was 112% and the residual activity [2] was 100.7%.
`CC(C)=CCc1c2c(c3occ(-c4ccc(O)c(O)c4)c(=O)c3c1O)C=CC(C)(C)O2` [POMIFERIN] was tested, and the residual activity [1] was 114.2% and the residual activity [2] was 87.87%.
Compound `CC(=O)Nc1cccc(O)c1` [METACETAMOL] has a residual activity [1] of 66.39% and a residual activity [2] of 79.17%.
`COc1cc2c(cc1O)C[C@H]1c3c(cc(O)c(OC)c3-2)CCN1C` [BOLDINE] gave a residual activity [1] of 47.95% and a residual activity [2] of 100.1%.
With `CC(=O)O[C@H]1CC[C@@]2(C)C(=CC[C@@H]3[C@@H]2CC[C@]2(C)C4C(C[C@@H]32)OC2(CCC(C)CO2)[C@H]4C)C1` (stereo partly specified) the residual activity [1] was 111% and the residual activity [2] was 105.4%.
Work on `CO[C@@]1(NC(=O)CSCC#N)C(=O)N2C(C(=O)[O-])=C(CSc3nnnn3C)CS[C@@H]21.[Na+]` [CEFMETAZOLE SODIUM] yielded a residual activity [1] of 123.3% and a residual activity [2] of 108.6%.
Compound `CC(C)(C)NCC(O)COc1cccc2c1CC(O)C(O)C2` (stereo unspecified) [NADOLOL] has a residual activity [1] of 76.36% and a residual activity [2] of 86.47%.
With `OC[C@H]1O[C@@H](n2cnc3c(O)ncnc32)[C@H](O)[C@@H]1O` [INOSINE] the residual activity [1] was 110.7% and the residual activity [2] was 107.3%.
With `CC1=C2[C@H]3OC(=O)[C@@H](C)[C@@H]3CC[C@@]2(C)C=CC1=O` [SANTONIN] the residual activity [1] was 108.9% and the residual activity [2] was 89.43%.
For `c1ccc2c(Cc3c[nH]c4ccccc34)c[nH]c2c1` [ARUNDINE], the residual activity [1] was 101.6% and the residual activity [2] was 110.1%.
In the case of `CCC[C@H]1CCCCN1` [CONIINE], the residual activity [1] is reported as 105.3% and the residual activity [2] is reported as 100.1%.
`N[C@@H](Cc1c[nH]c2ccccc12)C(=O)O` [TRYPTOPHAN] was tested, and the residual activity [1] was 93.19% and the residual activity [2] was 97.09%.
`CCC1(c2ccc(N)cc2)CCC(=O)NC1=O` (stereo unspecified) [AMINOGLUTETHIMIDE] was tested, and the residual activity [1] was 52.33% and the residual activity [2] was 77%.
With `CCCCOC(=O)c1ccc(N)cc1` [BUTAMBEN] the residual activity [1] was 159.2% and the residual activity [2] was 124.9%.
In the case of `C=CCCCCCCCCCCCC(O)CC(O)COC(C)=O` (stereo unspecified) [AVOCATIN A], the residual activity [1] is reported as 125.1% and the residual activity [2] is reported as 99.6%.
For `COP(=S)(OC)SCn1nnc2ccccc2c1=O` [GUTHION], the residual activity [1] was 109.1% and the residual activity [2] was 101.8%.
In the case of `OCc1ccccc1O[C@@H]1O[C@H](CO)[C@@H](O)[C@H](O)[C@H]1O` [SALICIN], the residual activity [1] is reported as 85.64% and the residual activity [2] is reported as 97.32%.
`c1ccc2c3c([nH]c2c1)CNCC3` [TRYPTOLINE] showed a residual activity [1] of 99.4% and a residual activity [2] of 98.72%.
Work on `COc1cc(C)c(C(=O)O)c(O)c1` [EVERNINIC ACID] yielded a residual activity [1] of 82.73% and a residual activity [2] of 90.88%.
`COc1c(O)cc(O)cc1O` [IRETOL] gave a residual activity [1] of 89.16% and a residual activity [2] of 111.8%.
Compound `C[C@H](CCC(=O)O)[C@H]1CC[C@H]2[C@@H]3CC[C@@H]4CCCC[C@]4(C)[C@H]3CC[C@]12C` [URSOCHOLANIC ACID] has a residual activity [1] of 98.45% and a residual activity [2] of 102.7%.
For `CC(C)=CCC[C@]1(C)C=Cc2c(O)c3c(c(CC=C(C)C)c2C1)O[C@]12C(=C[C@@H]4C[C@H]1C(C)(C)O[C@@]2(C/C=C(/C)C(N)=O)C4=O)C3=O`, the residual activity [1] was 57.81% and the residual activity [2] was 70.77%.
For `OCC(O)CN1CCN(c2ccccc2)CC1` (stereo unspecified) [DROPROPIZINE], the residual activity [1] was 71.05% and the residual activity [2] was 96.03%.
Work on `CN[C@@H]1[C@H](O[C@H]2[C@H](O[C@H]3[C@H](O)[C@@H](O)[C@H](N=C(N)N)[C@@H](O)[C@@H]3N=C(N)N)O[C@@H](C)[C@]2(O)C=O)O[C@@H](CO)[C@H](O)[C@H]1O.CN[C@@H]1[C@H](O[C@H]2[C@H](O[C@H]3[C@H](O)[C@@H](O)[C@H](N=C(N)N)[C@@H](O)[C@@H]3N=C(N)N)O[C@@H](C)[C@]2(O)C=O)O[C@@H](CO)[C@H](O)[C@H]1O.O=S(=O)(O)O.O=S(=O)(O)O.O=S(=O)(O)O` [STREPTOMYCIN SULFATE] yielded a residual activity [1] of 87.18% and a residual activity [2] of 109.2%.
`CCOC(=O)[C@H](CCc1ccccc1)N[C@H]1CCc2ccccc2N(CC(=O)O)C1=O.Cl` [BENAZEPRIL HYDROCHLORIDE] gave a residual activity [1] of 101.2% and a residual activity [2] of 84.15%.
With `OCC(O)C(O)C(O)C(O)C(O)CO` (stereo unspecified) [PERSEITOL] the residual activity [1] was 60.19% and the residual activity [2] was 73.5%.
In the case of `CC(=O)Oc1cccc(C(=O)O)c1OC(C)=O` [DIPYROCETYL], the residual activity [1] is reported as 115.7% and the residual activity [2] is reported as 102.1%.
`CC(C)(Oc1ccc(CCNC(=O)c2ccc(Cl)cc2)cc1)C(=O)O` [BEZAFIBRATE] was tested, and the residual activity [1] was 72.82% and the residual activity [2] was 74.47%.
`CCOc1ccc2ccccc2c1C(=O)N[C@@H]1C(=O)N2[C@@H]1SC(C)(C)[C@@H]2C(=O)[O-].O.[Na+]` [NAFCILLIN SODIUM] was tested, and the residual activity [1] was 74.51% and the residual activity [2] was 114.4%.
Compound `CC(=O)NC(C(=O)O)C(C)(C)SN=O` (stereo unspecified) has a residual activity [1] of 73.57% and a residual activity [2] of 84.98%.
With `CC[C@@]1(O)C(=O)OCc2c1cc1n(c2=O)Cc2cc3ccccc3nc2-1` [CAMPTOTHECIN] the residual activity [1] was 74.81% and the residual activity [2] was 107.3%.
In the case of `O=c1c(-c2ccccc2)coc2cc(O)cc(O)c12` [5,7-DIHYDROXYISOFLAVONE], the residual activity [1] is reported as 54.1% and the residual activity [2] is reported as 75.57%.
`N#Cc1c(Cl)c(Cl)c(Cl)c(C#N)c1Cl` [CHLOROTHALONIL] was tested, and the residual activity [1] was 92.97% and the residual activity [2] was 81.58%.
`Br.CC(N)Cc1ccc(O)cc1` (stereo unspecified) [HYDROXYAMPHETAMINE HYDROBROMIDE] was tested, and the residual activity [1] was 85.8% and the residual activity [2] was 84.1%.
`OCc1ccccc1O` [SALICYL ALCOHOL] showed a residual activity [1] of 92.07% and a residual activity [2] of 117.7%.
`C[N+](C)(C)CC(=O)O.[Cl-]` [BETAINE HYDROCHLORIDE] was tested, and the residual activity [1] was 82.22% and the residual activity [2] was 113.7%.
For `COP(N)(=O)SC` (stereo unspecified) [METHAMIDOPHOS], the residual activity [1] was 96.41% and the residual activity [2] was 106%.
In the case of `COc1cc(-c2coc3cc(OCc4ccccc4)c(OC)c(O)c3c2=O)cc(O)c1OC` [IRIGENIN, 7-BENZYL ETHER], the residual activity [1] is reported as 60.69% and the residual activity [2] is reported as 36.98%.

Source: ChEMBL document CHEMBL3039007, “Structure-based identification of OATP1B1/3 inhibitors” (Mol Pharmacol, 2013)
